The text below walks through data of ChEMBL document CHEMBL1201862, “PubChem BioAssay data set” (2004).

What all share (assay): NCI tumour cell line growth inhibition, 48 h
The test system of assay [1] is A498.
Assay [2] has as its system CAKI-1.
The test system of assay [3] is CCRF-CEM.
For assay [4], the system named is COLO 205.
Assay [5] deals with EKVX.
The test system of assay [6] is HCT-116.
Assay [7] concerns HOP-62.
Assay [8] relates to IGROV-1.
The subject of assay [9] is KM12.
Assay [10] concerns LOX IMVI.
In assay [11] the test system is MOLT-4.
Assay [12] has as its system NCI-H460.
For assay [13], the system named is NCI-H522.
In assay [14] the test system is RPMI-8226.
The subject of assay [15] is RXF 393.
In assay [16] the test system is SF-268.
Assay [17] has as its system SN12C.
The subject of assay [18] is UACC-257.
For assay [19], the system named is UACC-62.
The subject of assay [20] is ACHN.

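Method: 48-hour compound exposure of cells in 96-well plates, five concentrations, linear interpolation of endpoints. Here, GI50 denotes the concentration required for 50% inhibition of growth.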 Calls of active or inactive are those of the source. Rule as the data show it: active = GI50 up to about 1.1 µM and inactive = higher.

As for `CC1NC(=O)C(C)C(c2ccccc2)N(N=O)C1c1ccccc1` (stereo not drawn), the GI50 is 12.8 µM (inactive) in assay [1]; > 100 µM (inactive) in assay [2]; 55.7 µM (inactive) in assay [3]; > 63.4 µM (inactive) in assay [4]; > 83 µM (inactive) in [5]; > 59 µM (inactive) in assay [6]. The GI50 in assay [7] was > 87.9 µM (inactive); in [8], > 81.5 µM (inactive); in assay [9] it was 74.1 µM (inactive); in [10], > 69.5 µM (inactive); in assay [11], 36.8 µM (inactive); in [12] it was > 61.7 µM (inactive). In addition, the GI50 is 88.9 µM (inactive) in assay [13]; 33.6 µM (inactive) in assay [14]; 60.7 µM (inactive) in assay [15]; > 100 µM (inactive) in assay [16]; > 100 µM (inactive) in [17]; > 100 µM (inactive) in assay [18]. Besides, in assay [19], the GI50 was > 88.5 µM (inactive).

Take `COc1cc2c(ccc3c4cc(OC)c(OC)cc4c[n+](C)c23)cc1O` [FAGARONINE]: the GI50 was 3.94 µM (inactive) in assay [1]; 61.7 µM (inactive) in [2]; 2.02 µM (inactive) in [3]; 15 µM (inactive) in assay [4]; 39.6 µM (inactive) in [5]; 4.24 µM (inactive) in [6]. Besides, the GI50 is 2.3 µM (inactive) in [7]; 23.2 µM (inactive) in assay [8]; > 75 µM (inactive) in assay [9]; > 33 µM (inactive) in assay [10]; 4.28 µM (inactive) in [11]; 14.7 µM (inactive) in assay [12]. The GI50 in [13] is 0.131 µM (active); in [14], > 65.3 µM (inactive); in assay [15], 30 µM (inactive); in assay [16] it was 0.0588 µM (active); in [17], 0.726 µM (active); in assay [18] it was > 67 µM (inactive). In [19], the GI50 is 1.23 µM (inactive).

For the molecule `Cn1cc(-c2csc(-c3cn(C)c4ccccc34)n2)c2ccccc21`, the GI50 in assay [1] was 12.6 µM (inactive); in [20], 21.6 µM (inactive); in [2], 17.8 µM (inactive); in [3] it was > 100 µM (inactive); in [4], > 100 µM (inactive); in assay [6], 43.5 µM (inactive). Besides, the GI50 was 17.6 µM (inactive) in assay [7]; 27 µM (inactive) in [8]; 43.3 µM (inactive) in assay [9]; 36.4 µM (inactive) in assay [10]; 14.1 µM (inactive) in [11]; 26.5 µM (inactive) in [12]. In addition, the GI50 in [13] was 76.7 µM (inactive); in assay [14], 20.7 µM (inactive); in [15], 14.1 µM (inactive); in assay [16], 58.2 µM (inactive); in assay [17], 47.8 µM (inactive); in [18], 48.6 µM (inactive). For the same molecule, in assay [19], the GI50 is 32.2 µM (inactive).

On to `CC[C@H](O)[C@H](C)C=C1SCCCS1`, for which the GI50 in [1], in assay [20], in assay [2], in assay [3], in [4] and in [5] was > 100 µM (inactive) in each case. For the same molecule, the GI50 in [6], in assay [7], in assay [8], in assay [9], in assay [10] and in [11] was > 100 µM (inactive) throughout. In addition, the GI50 in assay [13], in assay [14], in [15], in assay [16], in assay [17] and in [18] was > 100 µM (inactive) throughout. In addition, the GI50 in assay [19] is > 100 µM (inactive).

`O=C1C=CC(=O)c2c(Cl)ccc(O)c21`: the GI50 in assay [1] is > 87.9 µM (inactive); in assay [2], 11.1 µM (inactive); in assay [4], 13.1 µM (inactive); in assay [5], 21.8 µM (inactive); in assay [6] it was 9.79 µM (inactive); in assay [7], > 100 µM (inactive). For the same molecule, the GI50 in assay [8] is 14.6 µM (inactive); in [9] it was 52.7 µM (inactive); in assay [10] it was 18.2 µM (inactive); in [11], 4.54 µM (inactive); in assay [12], > 65.9 µM (inactive); in assay [13], 13.9 µM (inactive). Further, the GI50 is 5.66 µM (inactive) in assay [14]; 16 µM (inactive) in [15]; 18.4 µM (inactive) in assay [16]; 21.1 µM (inactive) in assay [17]; 16.1 µM (inactive) in [18]; 16.8 µM (inactive) in assay [19].

As for `CN(CCO)Cc1ncccc1O`, the GI50 in [1] was > 100 µM (inactive); in [20] it was > 100 µM (inactive); in assay [2], > 100 µM (inactive); in [3], 68.5 µM (inactive); in [4], > 100 µM (inactive); in assay [5], > 100 µM (inactive). Besides, the GI50 in [7] is > 100 µM (inactive); in assay [8], > 100 µM (inactive); in assay [9], > 100 µM (inactive); in assay [10], > 100 µM (inactive); in assay [11] it was 25.5 µM (inactive); in assay [12] it was > 100 µM (inactive). Besides, the GI50 in assay [13], in assay [14], in assay [15], in assay [16], in [18] and in [19] was > 100 µM (inactive) each time.

On to `O=[N+]([O-])c1ccc(N2N=C(c3ccc(NCc4nc5ccccc5[nH]4)cc3)CC2c2ccco2)cc1` (stereo not drawn), for which the GI50 is 28.8 µM (inactive) in assay [1]; 22.8 µM (inactive) in assay [20]; 48.6 µM (inactive) in [2]; 21.6 µM (inactive) in [3]; 30.8 µM (inactive) in assay [4]; 16.2 µM (inactive) in [6]. Besides, the GI50 was 37.2 µM (inactive) in [7]; 33 µM (inactive) in assay [8]; 16.7 µM (inactive) in [9]; 18.5 µM (inactive) in assay [10]; 10.4 µM (inactive) in assay [11]; 24.8 µM (inactive) in assay [12]. For the same molecule, the GI50 in assay [13] was 15.5 µM (inactive); in [14], 12.4 µM (inactive); in [15] it was 42.2 µM (inactive); in assay [16], 34.8 µM (inactive); in assay [17] it was 20.3 µM (inactive); in assay [19], 19.5 µM (inactive).

As to `Cc1cc(C(=O)NCCN(C)C)c2nc3ccccc3cc2c1`, the GI50 in assay [1] is 1.15 µM (inactive); in assay [2] it was 0.33 µM (active); in [3], 1.36 µM (inactive); in assay [4], 1.1 µM (active); in assay [5], 0.594 µM (active); in assay [6], 0.904 µM (active). Besides, the GI50 in assay [7] is 1.68 µM (inactive); in [8] it was 2.39 µM (inactive); in assay [9] it was 2.94 µM (inactive); in [10], 1.27 µM (inactive); in assay [11], 0.381 µM (active); in [12] it was 0.372 µM (active). The GI50 was 1.55 µM (inactive) in assay [14]; 1.63 µM (inactive) in [15]; 2.77 µM (inactive) in [16]; 1.59 µM (inactive) in [17]; 2.07 µM (inactive) in [18]; 1.52 µM (inactive) in assay [19].

For `c1ccc(CNc2ncnc3nn[nH]c23)cc1`, the GI50 was 34 µM (inactive) in assay [1]; > 100 µM (inactive) in assay [20]; > 100 µM (inactive) in assay [2]; > 100 µM (inactive) in [3]; > 100 µM (inactive) in assay [4]; > 100 µM (inactive) in assay [5]. The GI50 in assay [6], in [7], in assay [8], in [9], in assay [10] and in assay [11] was > 100 µM (inactive) in each case. Besides, the GI50 in assay [13], in [15], in assay [17], in assay [18] and in [19] was > 100 µM (inactive) each time.

Regarding `C=C1C(=O)OC2CC1CCC1(C)OC1CCC(C)=CCCC2(C)O` (stereo not drawn), the GI50 in [1] is 2.13 µM (inactive); in assay [2], 2.4 µM (inactive); in [3], 1.03 µM (active); in assay [4], 1.89 µM (inactive); in assay [5], 6.87 µM (inactive); in assay [6], 2.72 µM (inactive). Also, the GI50 in [7] is 10.3 µM (inactive); in [8], 7.18 µM (inactive); in assay [9], 5.52 µM (inactive); in assay [10], 2.24 µM (inactive); in assay [11] it was 1.87 µM (inactive); in assay [12], 3.06 µM (inactive). Further, the GI50 is 1.06 µM (active) in [13]; 1.51 µM (inactive) in assay [14]; 1.2 µM (inactive) in assay [15]; 5.36 µM (inactive) in [16]; 5.08 µM (inactive) in assay [17]; 4.78 µM (inactive) in assay [18]. Also, in assay [19], the GI50 was 3.4 µM (inactive).

Regarding `OC[C@H]1C[C@@H]2Cc3ccccc3N2N1`, the GI50 in [1], in [20], in assay [2], in assay [3], in assay [4] and in [5] was > 100 µM (inactive) each time. In addition, the GI50 in assay [6], in assay [7], in assay [8], in [9], in assay [10] and in [11] was > 100 µM (inactive) throughout. In addition, the GI50 in assay [12], in assay [13], in assay [15], in [16], in assay [17] and in assay [18] was > 100 µM (inactive) in each case. The GI50 in assay [19] was > 100 µM (inactive).
